# Measurements taken from the SangsterLogP compilation.
row,logP,SMILES
1,3.75,C/C=C(/C)C(=O)O[C@@H]1[C@H](OC(C)=O)c2c(ccc3ccc(=O)oc23)OC1(C)C
2,4.41,C/C=C(\C)C(=O)OC1c2c(ccc3ccc(=O)oc23)OC(C)(C)[C@@H]1OC(=O)/C(C)=C/C (stereo not given in full)
3,2.45,COc1cc2ccc(=O)oc2cc1OC
4,3.03,COc1ccc2ccc(=O)oc2c1CC1OC1(C)C (stereo not given)
5,3.56,C/C=C(/C)C(=O)O[C@H]1[C@@H](O)c2c(ccc3ccc(=O)oc23)OC1(C)C

# Continued, compound first:
row,SMILES,logP
1,COc1ccc2c(C)cc(=O)oc2c1,3.16
2,C/C=C(/C)C(=O)O[C@H]1C[C@@](C)(O)C(=O)[C@@H](OC(=O)/C(C)=C\C)[C@@]2(C)CC[C@@](O)(C(C)C)[C@@H]12,3.29
3,O=c1cc(O)c2ccccc2o1,1.42
4,CC(C)=CCOc1ccc2ccc(=O)oc2c1,3.91
5,COc1c2ccoc2c(OCC=C(C)C)c2oc(=O)ccc12,3.86
